{
  "source": "ChEMBL document CHEMBL3244058",
  "about": "“Dibenz[b,e]oxepinalkanoic acids as nonsteroidal antiinflammatory agents. 2. Dihydro-10-oxofuro-and -thieno[3,2-c][1]benzoxepin-8-acetic acids” (J Med Chem, 1977)",
  "key": {"Rattus norvegicus [1]": {"tested_on": "Rattus norvegicus", "assay": "Ratio of indomethacin ED50 to compound ED50 for po dosed rat assessed as inhibition of carrageenan-induced paw edema", "format": "functional"}, "[2]": {"assay": "Gastrointestinal toxicity in po dosed rat assessed as induction of gastric irritation", "format": "organism-based, Stomach", "details": "in vivo, read-out: ID50 (the source's name)"}, "Rattus norvegicus [3]": {"tested_on": "Rattus norvegicus", "assay": "Antiinflammatory activity in po dosed rat assessed as inhibition of carrageenan-induced paw edema", "format": "functional"}, "[4]": {"assay": "Therapeutic index, ratio of ID50 for po dosed rat to ED50 for po dosed rat", "format": "organism-based", "details": "in vivo, read-out: TI"}},
  "data": [
    {"smiles": "O=C(O)Cc1ccc2c(c1)C(=O)c1sccc1CO2", "values": [
      {"measurement": "Ratio ED50", "setting": "Rattus norvegicus [1]", "result": 1.3},
      {"measurement": "TD50", "setting": "[2]", "result": 33.7, "unit": "mg/kg"},
      {"measurement": "ED50", "setting": "Rattus norvegicus [3]", "result": 3.37, "unit": "mg/kg"},
      {"measurement": "selectivity ratio", "setting": "[4]", "result": 10}
    ]},
    {"smiles": "O=C(O)Cc1ccc2c(c1)C(=O)c1occc1CO2", "values": [
      {"measurement": "ED50", "setting": "Rattus norvegicus [3]", "result": 33.3, "unit": "mg/kg"}
    ]},
    {"smiles": "COc1ccc2c(c1)c(CC(=O)O)c(C)n2C(=O)c1ccc(Cl)cc1", "note": "[INDOMETHACIN]", "values": [
      {"measurement": "ED50", "setting": "Rattus norvegicus [3]", "result": 4.35, "unit": "mg/kg"},
      {"measurement": "selectivity ratio", "setting": "[4]", "result": 0.4}
    ]},
    {"smiles": "O=C(O)Cc1ccc2c(c1)C(=O)c1ccccc1CO2", "note": "[ISOXEPAC]", "values": [
      {"measurement": "ED50", "setting": "Rattus norvegicus [3]", "result": 6.36, "unit": "mg/kg"},
      {"measurement": "selectivity ratio", "setting": "[4]", "result": 13}
    ]}
  ]
}
